Assay results published in publication PMC4604124, “In Vitro Characterization of the Pharmacological Properties of the Anti-Cancer Chelator, Bp4eT, and Its Phase I Metabolites” (PLoS ONE, 2015).
“And” between values parts separate entries of the source, which are not always exact repeats. Equal entries are not always repeated.

Assays:
[1] = Ascorbate oxidation assay (redox activity of iron complexes); format: biochemical; settings: for %Fe 30min: ascorbate oxidation as % of the Fe control (Fe 100%): IBE 0.1, 30 min;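 as to %Fe 30min (ascorbate oxidation, Fe 100%), průměr: IBE 3 means excess free chelator over iron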;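 as to %Fe 30min (ascorbate oxidation, Fe 100%): IBE 3 means excess free chelator over iron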;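 as to %Fe 30min: ascorbate oxidation as % of the Fe control (Fe 100%): IBE 0.1 means iron-binding equivalents with iron in excess over chelator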;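 as to Change of absorbance, odečet 0 (time 0 subtracted), čas 10, průměr: IBE 3 means excess free chelator over 10 µM FeCl3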;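 as to Change of absorbance, odečet 0 (time 0 subtracted), čas 10: IBE 3 means excess free chelator over 10 µM FeCl3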
Description: The ascorbate oxidation assay was used to assess the redox activity of the iron complexes of the chelators using an established protocol. In brief, 100 μM ascorbic acid was prepared immediately prior to the experiment and incubated either alone or in the presence of 10 μM FeCl3 in a 50-fold molar excess (500 μM) of citrate and the chelators. Chelators were assayed at iron-binding equivalents (IBE) of 0.1 (excess of iron), 1 (fully coordinated iron—chelator complexes) and 3 (excess of free chelator). […] The decrease of absorbance between the two time points was calculated and expressed as a percentage of control without the chelator.

[2] = test system: cancer cells; set-up: method as in PMID 17602603, PMID 23074173, PMID 2758414, PMID 20036563; settings: cited from earlier work
[3] = test system: labile iron pool of MCF-7 cells; assay: Calcein-AM assay, access to the labile iron pool; format: cell-based, human; settings: 10 μM, MCF-7, mean of 6 experiments
Description: These experiments were performed according to Glickstein et al. with slight modifications. The MCF-7 cells were seeded in 96-well plates (10,000 cells/well) and allowed to adhere for 24 h/37°C. Cells were loaded with iron using the cellular iron donor, ferric ammonium citrate (530 μg/mL), 24 h prior to the experiment, and then washed. To prevent potential interference, especially with regard to various trace elements, the medium was replaced with ADS buffer (prepared using Millipore water supplemented with 116 mM NaCl, 5.3 mM KCl, 1 mM CaCl2, 1.2 mM MgSO4, 1.13 mM NaH2PO4, 5 mM D-glucose, and 20 mM HEPES, pH 7.4). Cells were then loaded with 2 μM of the cell-permeable calcein green acetoxymethyl ester (calcein-AM; Molecular Probes, Oregon, USA) for 30 min/37°C and washed. Cellular esterases cleave the acetoxymethyl groups to form the cell membrane-impermeable compound, calcein green. The fluorescence of calcein green is quenched upon binding iron. The intracellular fluorescence (λex = 488 nm; λem = 530 nm) of calcein green was then followed as a function of time (10 min after the addition of 10 μM Bp4eT or its metabolites) at 37°C using the Tecan Infinite 200M plate reader. The iron chelation efficacy of the metabolites in cells was expressed as a percentage of the efficacy of the parent chelator, Bp4eT (100%).

[4] = test system: cancer cells (HL-60, MCF-7, HCT116, A549) and non-cancerous cells (H9c2, 3T3); assay: MTT cytotoxicity assay, summary over the cell line panel; format: cell-based; settings: HL-60, MCF-7, HCT116, A549; 72 h; read-out: IC50, range over cancer cells
Description: (§1) For cytotoxicity experiments, cancer cells were seeded at a density of 5,000 (MCF-7), 10,000 (HL-60) or 2,000 cells/well (HCT116 and A549) in 96-well plates (TPP) for 24 h/37°C prior to the addition of examined agents. The non-cancerous cells, 3T3 and H9c2 cells, were cultured for 24 h/37°C in 96-well plates at a density of 10,000 cells/well, the medium was then changed to serum- and pyruvate-free DMEM (Sigma-Aldrich) and incubated with the cells for another 24 h/37°C. The cytotoxic effects of Bp4eT and its metabolites were studied at different concentrations after a 72 h/37°C incubation. In order to aid the dissolution of the lipophilic ligands, 0.1% dimethyl sulfoxide (v/v) (DMSO; Sigma-Aldrich) was present in the culture medium of all groups. At this concentration, DMSO had no effect on cellular proliferation or viability.
(§2) The viability of cells were determined using an MTT assay (Sigma-Aldrich) according to previously established methods. The optical density of soluble MTT was measured at λ = 570 nm, subtracting the λ = 690 nm background using a Tecan Infinite 200M plate reader (Tecan Group, Männedorf, Switzerland). The viability or proliferation of experimental groups was expressed as a percentage of the untreated controls (100%).
(§3) SigmaStat for Windows 3.5 (Systat Software, San Jose, CA, USA) statistical software package was utilized to analyze results. The data are expressed as the mean ± SD of a given number of experiments. Statistical significance was determined using a one-way ANOVA with a Bonferroni post-hoc test or Student’s t-test. The results were considered to be statistically significant when p < 0.05. The IC50 values were calculated using CalcuSyn 2.0 software (Biosoft, Cambridge, UK). Cell cycle analysis was evaluated using MultiCycle AV Software (Phoenix Flow Systems, San Diego, CA, USA).

[5] = test system: MCF-7 cells; assay: Cellular 59Fe uptake from 59Fe2-transferrin; format: cell-based, human; settings: 25 μM, 3 h/37°C, MCF-7, 0.75 μM 59Fe2-Tf
Excerpt: Human transferrin (Sigma) was labeled with ^56Fe or ^59Fe (PerkinElmer, Massachusetts, USA) to produce ^56Fe2-transferrin or ^59Fe2-transferrin (^59Fe2-Tf), respectively, with a final specific activity of 500 pCi/pmol Fe, as previously described. Unbound ^59Fe was removed by exhaustive vacuum dialysis against a large excess of 0.15 M NaCl buffered to pH 7.4 with 1.4% NaHCO3 by standard methods.
The ability of the chelators to prevent cellular ^59Fe uptake from ^59Fe2-transferrin was examined using standard techniques. In brief, confluent MCF-7 cells in 6-well plates were incubated with 0.75 μM ^59Fe2-Tf for 3 h/37°C in the presence of Bp4eT or its metabolites (25 μM). The cells were then washed four times with ice-cold PBS and the level of internalized ^59Fe was determined by incubating the cell monolayer for 30 min/4°C with the general protease, Pronase (1 mg/mL; Sigma-Aldrich). The cells were then removed from the monolayer with a plastic spatula on ice and centrifuged for 1 min/12,000 x g/4°C. The supernatant represents membrane-bound, Pronase-sensitive ^59Fe that was released by the protease, while the Pronase-insensitive fraction represents internalized ^59Fe. The amount of internalized ^59Fe was expressed as a percentage of ^59Fe internalized by control (untreated) cells.

[6] = test system: H9c2 cardiomyoblasts; assay: MTT cytotoxicity assay, H9c2 cells; format: cell-based, rat; settings: H9c2, 72 h/37°C, MTT; mean ± SD, n ≥ 4; read-out: IC50
Description: as §1, §2, §3

[7] = test system: 3T3 mouse embryo fibroblasts; assay: MTT cytotoxicity assay, 3T3 cells; format: cell-based; settings: Mus musculus, Fibroblast, 72 h, 3T3, 72 h; read-out: IC50
Description: as §1, §2, §3

[8] = set-up: method as in PMID 24254882; settings: E and Z isomers, after Bp4eT; cited from earlier work
[9] = sheet IBE 1, time 10, replicates
[10] = sheet IBE 1, time 20, replicates
[11] = sheet IBE 1, time 30, replicates

SMILES: CC(=O)N(O)CCCCCNC(=O)CCC(=O)N(O)CCCCCNC(=O)CCC(=O)N(O)CCCCCN [DFO, deferoxamine, reference compound]
- %Fe 30min: ascorbate oxidation as % of the Fe control (Fe 100%) ([1]; mean (průměr)): 95.6%
- %Fe 30min: ascorbate oxidation as % of the Fe control (Fe 100%) ([1]; single wells): 92.32% and 94.84% and 89.62% and 108.6% and 104.8% and 93.48%
- Change of absorbance after subtraction of time 0 (odečet 0) ([1]; IBE 0.1, time 10, mean (průměr)): -0.0289
- Change of absorbance after subtraction of time 0 (odečet 0) ([1]; IBE 0.1, time 20, mean (průměr)): -0.06128
- Change of absorbance after subtraction of time 0 (odečet 0) ([1]; IBE 0.1, time 30, mean (průměr)): -0.09056
- Absorbance (ascorbate, λ = 265 nm) ([1]; IBE 0.1, čas 0 (time 0), mean (průměr)): 0.8374
- Absorbance (ascorbate, λ = 265 nm) ([1]; IBE 0.1, čas 0 (time 0), single wells): 0.8482 and 0.8386 and 0.8297 and 0.8393 and 0.8347 and 0.8423
- Absorbance (ascorbate, λ = 265 nm) ([1]; IBE 0.1, čas 10 (time 10), mean (průměr)): 0.8085
- Absorbance (ascorbate, λ = 265 nm) ([1]; IBE 0.1, čas 10 (time 10), single wells): 0.8014 and 0.8085 and 0.8061 and 0.8115 and 0.8174 and 0.8155
- Absorbance (ascorbate, λ = 265 nm) ([1]; IBE 0.1, čas 20 (time 20), mean (průměr)): 0.7761
- Absorbance (ascorbate, λ = 265 nm) ([1]; IBE 0.1, čas 20 (time 20), single wells): 0.7691 and 0.7765 and 0.7756 and 0.7789 and 0.7837 and 0.7797
- Absorbance (ascorbate, λ = 265 nm) ([1]; IBE 0.1, čas 30 (time 30), mean (průměr)): 0.7468
- Absorbance (ascorbate, λ = 265 nm) ([1]; IBE 0.1, čas 30 (time 30), single wells): 0.7397 and 0.7469 and 0.7473 and 0.7447 and 0.754 and 0.7546
- Ascorbate oxidation, % of the control ([1]; IBE 1): significant (p < 0.001) decrease
- Ascorbate oxidation, % of the control ([1]; IBE 3): significant (p < 0.001) decrease
- %Fe 30min (ascorbate oxidation, Fe = 100%), průměr (mean) ([1]; sheet IBE 1, 30min, Fe 100%, mean): 34.33%
- %Fe 30min (ascorbate oxidation, Fe = 100%), single replicates ([1]; sheet IBE 1, 30min, Fe 100%, replicates): 31.7% and 34.66% and 23.38% and 46.3% and 44.12% and 39.04%
- raw reading at čas 0 (time 0), průměr (mean) ([1]; sheet IBE 1, time 0, mean of 9 readings): 0.8386
- raw reading at čas 0 (time 0), single replicates ([1]; sheet IBE 1, time 0, replicates of 2014-03-24 (two runs) and 2014-03-25): 0.8558 and 0.8596 and 0.828 and 0.8361 and 0.827 and 0.8501
- odečet 0 (reading minus time 0 reading) at čas 10, průměr (mean) ([1]; sheet IBE 1, time 10, mean): -0.01
- raw reading at čas 10 (time 10), průměr (mean) ([1]; sheet IBE 1, time 10, mean of 9 readings): 0.8286
- odečet 0 (reading minus time 0 reading) at čas 10, single replicates [1, 9]: -0.00635 and -0.01167 and -0.00323 and -0.01849 and -0.01895 and -0.01001
- raw reading at čas 10 (time 10), single replicates [1, 9]: 0.8216 and 0.8244 and 0.8238 and 0.8316 and 0.8369 and 0.8496
- odečet 0 (reading minus time 0 reading) at čas 20, průměr (mean) ([1]; sheet IBE 1, time 20, mean): -0.0179
- raw reading at čas 20 (time 20), průměr (mean) ([1]; sheet IBE 1, time 20, mean of 9 readings): 0.8207
- odečet 0 (reading minus time 0 reading) at čas 20, single replicates [1, 10]: -0.01539 and -0.01649 and -0.00893 and -0.03069 and -0.02809 and -0.02068
- raw reading at čas 20 (time 20), single replicates [1, 10]: 0.8126 and 0.8196 and 0.8181 and 0.8194 and 0.8278 and 0.8389
- odečet 0 (reading minus time 0 reading) at čas 30, průměr (mean) ([1]; sheet IBE 1, time 30, mean): -0.0308
- raw reading at čas 30 (time 30), průměr (mean) ([1]; sheet IBE 1, time 30, mean of 9 readings): 0.8078
- odečet 0 (reading minus time 0 reading) at čas 30, single replicates [1, 11]: -0.02739 and -0.02994 and -0.0202 and -0.04369 and -0.04163 and -0.03684
- raw reading at čas 30 (time 30), single replicates [1, 11]: 0.8006 and 0.8061 and 0.8068 and 0.8064 and 0.8142 and 0.8227
- %Fe 30min (ascorbate oxidation, Fe 100%), průměr ([1]; sheet IBE 3, 30min, Fe alone = 100%, mean (průměr) of the 9 replicates): 14.03%
- %Fe 30min (ascorbate oxidation, Fe 100%) ([1]; sheet IBE 3, 30min, Fe alone = 100%, single replicates): 16.83% and 16.2% and 10.25% and 18.5% and 12.77% and 8.453%
- Change of absorbance, odečet 0 (time 0 subtracted), čas 10, průměr ([1]; sheet IBE 3, time 10 minus time 0, mean (průměr)): -0.00229
- Change of absorbance, odečet 0 (time 0 subtracted), čas 10 ([1]; sheet IBE 3, time 10 minus time 0, single replicates): -0.00147 and -0.00159 and -0.00408 and -0.00649 and -0.00197 and 0.00214
- Change of absorbance, odečet 0 (time 0 subtracted), čas 20, průměr ([1]; sheet IBE 3, time 20 minus time 0, mean (průměr)): -0.00588
- Change of absorbance, odečet 0 (time 0 subtracted), čas 20 ([1]; sheet IBE 3, time 20 minus time 0, single replicates): -0.00984 and -0.00475 and -0.00555 and -0.0054 and -0.00607 and -0.00117
- Change of absorbance, odečet 0 (time 0 subtracted), čas 30, průměr ([1]; sheet IBE 3, time 30 minus time 0, mean (průměr)): -0.01297
- Change of absorbance, odečet 0 (time 0 subtracted), čas 30 ([1]; sheet IBE 3, time 30 minus time 0, single replicates): -0.01562 and -0.01504 and -0.00952 and -0.01694 and -0.01169 and -0.00774
- IC50 values against cancer cells [2]: μM range

SMILES: CCNC(=O)NN=C(c1ccccc1)c1ccccn1 [Bp4eS, 2-benzoylpyridine 4-ethylsemicarbazone]
- Chelation efficacy: fluorescence of free calcein at t = 600 s as percentage of Bp4eT [3]: ≤ 1.0%
- IC50 [4]: 46 to 536 µM
- Internalized 59Fe uptake, % of the control [5]: comparable to the untreated control
- IC50 [6]: 343 µM
- IC50 [7]: > 1000 µM
- Concentration in plasma [8]: < 20 nM

SMILES: O=C(O)c1ccc(-n2nc(-c3ccccc3O)nc2-c2ccccc2O)cc1 [deferasirox]
- IC50 values against cancer cells [2]: μM range
